Measured values from ChEMBL document CHEMBL4145498, “Novel inhibitors of the rRNA ErmC' methyltransferase to block resistance to macrolides, lincosamides, streptogramine B antibiotics” (Eur J Med Chem, 2018).

Tests used:
[1] = biological target: T1, rRNA adenine N-6-methyltransferase (Staphylococcus aureus (strain N315)) (UniProt P0A0H2); assay: Inhibition of recombinant bacterial ErmC' expressed in Escherichia coli DH5alpha assessed as potentiation of erythromycin-mediated growth inhibition by measuring erythromycin MIC after 18 hrs by dilution method (reference value: > 2560 mg/L); details: Bacteria
T1 sequence (whole entry): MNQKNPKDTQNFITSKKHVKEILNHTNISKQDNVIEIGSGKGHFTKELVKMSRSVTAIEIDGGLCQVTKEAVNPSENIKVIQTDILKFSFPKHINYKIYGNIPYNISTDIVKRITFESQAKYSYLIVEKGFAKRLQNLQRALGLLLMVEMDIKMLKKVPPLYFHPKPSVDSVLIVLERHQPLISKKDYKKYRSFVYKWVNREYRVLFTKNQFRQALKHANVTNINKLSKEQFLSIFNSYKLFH

[2] = system: Escherichia coli; assay: Antibacterial activity against Escherichia coli DH5alpha expressing recombinant bacterial ErmC' after 18 hrs by dilution method; assay type: ADME, organism-based, DH5[alpha]
[3] = biological target: T2, rRNA adenine N-6-methyltransferase (Staphylococcus aureus (strain N315), UniProt P0A0H2); assay: Inhibition of bacterial C-terminal His6-tagged ErmC' (unknown origin) expressed in Escherichia coli BL21(DE3) assessed as decrease in rRNA methylation using [methyl-3H]AdoMet measured after 1 hr; parameters: species or system Bacteria
T2 sequence (P0A0H2 whole entry): T1 sequence (whole entry)

[4] = biological target: T1, rRNA adenine N-6-methyltransferase (Staphylococcus aureus (strain N315)); assay: Inhibition of bacterial C-terminal His6-tagged ErmC' expressed in Escherichia coli BL21(DE3) assessed as decrease of protein binding to [gamma-33P]ATP-labeled 32-nt oligonucleotide at 6.25 mM after 30 mins by filter binding assay relative to control; details: Bacteria
[5] = Cytotoxicity against HEK293 cells assessed as cell viability at 125 uM after 24 hrs by MTT assay relative to control; assay type: cell-based; details: human, read-out: Activity
[6] = Cytotoxicity against HEK293 cells assessed as cell viability at 1000 uM after 24 hrs by MTT assay relative to control; assay type: cell-based; details: human, read-out: Activity
[7] = biological target: T1, rRNA adenine N-6-methyltransferase (Staphylococcus aureus (strain N315)); assay: Inhibition of bacterial C-terminal His6-tagged ErmC' expressed in Escherichia coli BL21(DE3) assessed as decrease of protein binding to [gamma-33P]ATP-labeled 32-nt oligonucleotide at 5.01 mM after 30 mins by filter binding assay relative to control; details: Bacteria
[8] = Cytotoxicity against HEK293 cells assessed as cell viability at 125 to 1000 uM after 24 hrs by MTT assay relative to control; assay type: cell-based; details: human
[9] = system: HEK293; assay: Cytotoxicity against HEK293 cells assessed as decrease in cell viability after 24 hrs by MTT assay; assay type: cell-based; details: human, hek293, 24 h
[10] = biological target: T1, rRNA adenine N-6-methyltransferase (Staphylococcus aureus (strain N315)); assay: Uncompetitive inhibition of bacterial C-terminal His6-tagged ErmC' expressed in Escherichia coli BL21(DE3) in presence of [methyl-3H]SAM; details: Bacteria
[11] = biological target: rRNA adenine N-6-methyltransferase (Staphylococcus aureus, UniProt P02979); assay: Inhibition of Staphylococcus aureus ErmC' expressed in Bacillus subtilis BD170 assessed as decrease in rRNA methylation using [methyl-3H]AdoMet measured after 120 mins by beta-plate counting method

Compound | MIC [1] [µg/mL] | MIC [2] | other results
CC(=O)Nc1ccc(S(=O)(=O)NCCc2ccncc2)cc1 | > 2560 | >= 100 mg/L | 
O=C(NCc1cccc(Cn2ccnc2)c1)c1cc2ccccc2o1 | > 2560 | >= 100 mg/L | 
O=C(Nc1cccc(NC(=O)c2cccc(F)c2)c1)c1ccncc1 | 2560 | >= 100 mg/L | 
CCCc1cc(C(=O)Nc2cccc(OCc3ccncc3)c2)[nH]n1 | > 2560 | >= 100 mg/L | 
Nn1c(SCc2nc3ccccc3[nH]2)nnc1-c1ccncc1 | > 2560 | >= 100 mg/L | 
O=C(c1ccn[nH]1)N1CCN(c2ccc(C(F)(F)F)cn2)CC1 | 2560 | >= 100 mg/L | IC50 [3]: Not Active
O=C(c1n[nH]c(=O)[nH]1)N1CCN(c2ccc(C(F)(F)F)cn2)CC1 | 2560 | >= 100 mg/L | 
O=C(NCCSc1ccccc1)c1ccc(-n2cncn2)cc1 | 2560 | >= 100 mg/L | 
O=C(c1cc(C2CC2)n[nH]1)N1CCN(c2ccc(C(F)(F)F)cn2)CC1 | 2560 | >= 100 mg/L | 
O=C(Cc1cn2ccsc2n1)Nc1cccc(N2CCCC2=O)c1 | 2560 | >= 100 mg/L | 
O=C(CCn1cncn1)NCc1cccc(NC(=O)C2CCCC2)c1 | 2560 | >= 100 mg/L | IC50 [3]: Not Active
COC(=O)c1sc2ccccc2c1OS(=O)(=O)c1ccc(Cl)cc1 |  |  | fold change (FC) [4]: 3
Cc1nccc(C(=O)Nc2cc(NC(=O)c3ccccc3)ccc2C)n1 | 2560 | >= 100 mg/L | IC50 [3]: Not Active
Nc1nc(N)nc(COC(=O)c2occc2COc2ccccc2)n1 | 2560 | >= 100 mg/L | IC50 [3]: Not Active
Cc1cnc(C(=O)NCCNc2ccc(C(F)(F)F)cn2)cn1 | 2560 | >= 100 mg/L | IC50 [3]: Not Active
O=C(c1c[nH]c(=O)[nH]1)N1CCN(c2ccc(C(F)(F)F)cn2)CC1 | 2560 | >= 100 mg/L | viability at 24 h, 125 µM [5]: 58%; viability at 24 h, 1000 µM [6]: 68%; fold change (FC) [7]: 2

Compound | MIC [1] [µg/mL] | MIC [2] | other results
Cc1cccc(Nc2nc(C(=O)N3CCN(c4ccc(C(F)(F)F)cn4)CC3)cs2)n1 | 2560 | >= 100 mg/L | viability at 24 h, 125 µM [5]: 59%; Activity [9]: Dose-dependent effect; viability at 24 h, 1000 µM [6]: 16%; alphaKi [10]: 155 µM
O=C(NCCOc1ccc2c(c1)OCO2)c1ccc2ccccc2n1 | > 2560 | >= 100 mg/L | 
O=C(Nc1cccc(NCc2ccncc2)c1)c1ccccc1Cl | 2560 | >= 100 mg/L | 
FC(F)(F)c1ccc(N2CCN(Cc3c[nH]c(-c4ccccc4)n3)CC2)nc1 | 2560 | >= 100 mg/L | 
O=C(NC1CCN(c2nc3ccccc3s2)CC1)c1ccncc1 | 2560 | >= 100 mg/L | 
O=C(CSc1nc2[nH]cnc2c(=O)[nH]1)Nc1ccc(O)cc1 | 2560 | >= 100 mg/L | IC50 [3]: Not Active
O=C(Nc1ccn(CCc2ccncc2)n1)Nc1ccc(F)cc1F | > 2560 | >= 100 mg/L | 
O=C(Nc1nccs1)c1cc(-c2ccccn2)nc2ccccc12 | 2560 | >= 100 mg/L | 
Cc1cnc(C(=O)NCCNc2ncccc2C(F)(F)F)cn1 | 2560 | >= 100 mg/L | IC50 [3]: Not Active
CC(C)c1ccc(NC(=S)N/N=C/c2cc(Cl)cc(Cl)c2O)cc1 |  |  | IC50 [11]: 450 nM
O=C(c1cn(-c2ccccc2)nn1)N1CCN(c2ccc(C(F)(F)F)cn2)CC1 | 2560 | >= 100 mg/L | 
Nc1nc(N)nc(CSc2nnc(NCc3ccccc3)s2)n1 | 2560 | >= 100 mg/L | 
CC(=O)c1c[nH]c(C(=O)N2CCN(c3ccc(C(F)(F)F)cn3)CC2)c1 | 2560 | >= 100 mg/L | 
O=C(NCCNc1ncccc1C(F)(F)F)c1cnccn1 | 2560 | >= 100 mg/L | IC50 [3]: Not Active
O=C(Cc1cccc(F)c1)Nc1cccc(-c2ccn[nH]2)c1 | 2560 | >= 100 mg/L | 
Cc1occc1C(=O)Nc1nc(CC(=O)Nc2ccccc2)cs1 | 2560 | >= 100 mg/L | 

Further molecules by falling MIC [1], results first:

MIC [1] [µg/mL] | MIC [2] | Compound | other results
2560 | >= 100 mg/L | Cc1cc(S(N)(=O)=O)cc(NC(=O)Cn2cnc(C#N)n2)c1C | IC50 [3]: Not Active
2560 | >= 100 mg/L | O=C(c1cnn[nH]1)N1CCN(c2ccc(C(F)(F)F)cn2)CC1 | 
2560 | >= 100 mg/L | O=C(CSc1nnc2c(n1)[nH]c1ccccc12)Nc1ccccn1 | 
2560 | >= 100 mg/L | Cn1cnnc1-c1cccc(NC(=O)Cc2cccc(F)c2)c1 | 
2560 | >= 100 mg/L | FC(F)(F)c1ccc(N2CCN(Cc3cn4ccccc4n3)CC2)nc1 | 
2000 | >= 100 mg/L | O=C(CSc1nc2cccnc2[nH]1)Nc1nccs1 | 
2000 | >= 100 mg/L | COc1ccc(C(=O)CSc2nc(O)cc(=O)[nH]2)cc1 | 
2000 | >= 100 mg/L | O=C(Nc1ccncc1)c1ccn(COc2ccc(F)c(Cl)c2)n1 | 
2000 | >= 100 mg/L | CC(=O)Nc1nc(C)c(-c2csc(Nc3cccc(O)c3)n2)s1 | viability at 24 h, up to 1000 µM ([8]; read-out: %max): 4.5%
2000 | >= 100 mg/L | O=C(c1csc(Nc2ncccn2)n1)N1CCN(c2ccc(C(F)(F)F)cn2)CC1 | viability at 24 h, up to 1000 µM ([8]; read-out: Activity): 59 to 67%
2000 | >= 100 mg/L | Cc1nccn1-c1ccc(CNc2nc3ccccc3o2)cc1F | IC50 [3]: Not Active
2000 | >= 100 mg/L | CN(C)c1ccc(CNC(=O)c2ccc(-n3cncn3)cc2)cc1 | 
2000 | >= 100 mg/L | O=C(c1cc(Cl)c[nH]1)N1CCN(c2ncc(C(F)(F)F)cc2Cl)CC1 | 
2000 | >= 100 mg/L | O=C(NCCNc1ccc(C(F)(F)F)cn1)c1cnccn1 | IC50 [3]: Not Active
2000 | >= 100 mg/L | CCC1N=C(C)C(CN2CCN(c3ccc(C(F)(F)F)cn3)CC2)=N1 (stereo not drawn) | IC50 [3]: Not Active
